The compounds below were run against mu-opioid receptor (Homo sapiens, UniProt P35372) (assay: biochemical). Details: […]; class symbol combines EC50 and efficacy; read-out: GTP Activity.
mu-opioid receptor, sequence (P35372 whole entry, species assumed): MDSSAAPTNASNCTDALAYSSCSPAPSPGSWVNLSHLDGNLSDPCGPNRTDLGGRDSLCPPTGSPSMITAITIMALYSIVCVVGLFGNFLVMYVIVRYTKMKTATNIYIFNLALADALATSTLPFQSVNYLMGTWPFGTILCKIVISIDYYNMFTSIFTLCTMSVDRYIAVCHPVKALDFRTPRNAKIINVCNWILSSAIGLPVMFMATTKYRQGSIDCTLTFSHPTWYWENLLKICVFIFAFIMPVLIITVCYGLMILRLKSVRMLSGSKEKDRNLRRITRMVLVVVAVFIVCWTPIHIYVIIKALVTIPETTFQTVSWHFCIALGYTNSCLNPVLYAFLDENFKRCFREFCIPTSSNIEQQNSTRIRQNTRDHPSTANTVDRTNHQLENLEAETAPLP

Compound | EC50 [nM]
CNC1=C(c2nc3ccccc3[nH]2)C(=O)C(C)(CO)N1c1cc(OC)cc(OC)c1 (stereo not shown) [compound 201] | < 100
COc1cc(OC)cc(N2C(N)=C(c3nc4ccccc4[nH]3)C(=O)C2CCCCN)c1 (stereo not shown) [compound 204] | 100 to 1000
COc1cc(OC)cc(N2C(N)=C(c3nc4ccccc4[nH]3)C(=O)[C@]23C[C@@H](O)C3)c1 [compound 206] | 100 to 1000
COc1cc(OC)cc(N2C(N)=C(c3nc4ccccc4[nH]3)C(=O)C23CC(=O)C3)c1 [compound 207] | 100 to 1000
COc1cc(OC)cc(N2C(N)=C(c3nc4ccccc4[nH]3)C(=O)C2(C)c2ccc(O)cc2)c1 (stereo not shown) [compound 209] | 1000 to 10000
COc1cc(OC)cc(N2C(N)=C(c3nc4ccccc4[nH]3)C(=O)C2(C)c2cccc(O)c2)c1 (stereo not shown) [compound 210] | 1000 to 10000

Same assay, conditions: class symbols; read-out: GTP Activity

Compound | EC50 [nM]
COc1cc(OC)cc(N2CC(=O)C(c3nc4c(C)cccc4[nH]3)=C2N)c1 [compound 5] | 1000 to 10000
COc1cc(OC)cc(N2CC(=O)C(c3nc4cc(C)ccc4[nH]3)=C2N)c1 [compound 6] | 1000 to 10000
COc1cc(OC)cc(N2CC(=O)C(c3nc4cc(OC)ccc4[nH]3)=C2N)c1 [compound 7] | 1000 to 10000
COc1cc(OC)cc(N2CC(=O)C(c3nc4c(F)cccc4[nH]3)=C2N)c1 [compound 11] | 1000 to 10000
Cc1cc(C)cc(N2CC(=O)C(c3nc4c(C)cccc4[nH]3)=C2N)c1 [compound 14] | 1000 to 10000
Cc1ccc(C)c(N2CC(=O)C(c3nc4cc(C)ccc4[nH]3)=C2N)c1 [compound 15] | 1000 to 10000
COc1ccc(OC)c(N2CC(=O)C(c3nc4c(C)cccc4[nH]3)=C2N)c1 [compound 16] | 1000 to 10000
Cc1ccc(C)c(N2CC(=O)C(c3nc4c(C)cccc4[nH]3)=C2N)c1 [compound 17] | 1000 to 10000
COc1cc(OC)cc(N2CC(=O)C(c3cn4ccccc4n3)=C2N)c1 [compound 41] | 1000 to 10000
CC(C)(C)Oc1ccccc1N1CC(=O)C(c2nc3ccccc3[nH]2)=C1N [compound 45] | 1000 to 10000
NC1=C(c2nc3ccccc3[nH]2)C(=O)CN1c1ccccc1Oc1ccccc1 [compound 46] | 1000 to 10000
CC(C)(C)c1ccccc1N1CC(=O)C(c2nc3ccccc3[nH]2)=C1N [compound 48] | 1000 to 10000
CCC1(C)C(=O)C(c2nc3ccccc3[nH]2)=C(N)N1c1cc(OC)cc(OC)c1 (stereo not shown) [compound 53] | 100 to 1000
COc1cc(OC)cc(N2C(N)=C(c3nc4ccccc4[nH]3)C(=O)C2O)c1 (stereo not shown) [compound 57] | 100 to 1000
COc1cc(OC)cc(-n2nc(N)c(-c3nc4ccccc4[nH]3)c2N)c1 [compound 66] | 100 to 1000
COc1cc(OC)cc(N2C(N)=C(c3nc4ccccc4[nH]3)C(=O)C2CO)c1 (stereo not shown) [compound 67] | 1000 to 10000
COCC1C(=O)C(c2nc3ccccc3[nH]2)=C(N)N1c1cc(OC)cc(OC)c1 (stereo not shown) [compound 68] | 100 to 1000
COCCC1C(=O)C(c2nc3ccccc3[nH]2)=C(N)N1c1cc(OC)cc(OC)c1 (stereo not shown) [compound 69] | 100 to 1000
COc1cc(OC)cc(N2C(N)=C(c3nc4ccccc4[nH]3)C(=O)C2CN)c1 (stereo not shown) [compound 70] | 100 to 1000
COc1cc(OC)cc(-n2c(=O)c(-c3nc4ccccc4[nH]3)c(N)n2C(C)C)c1 [compound 74] | 1000 to 10000
CNC1=C(c2nc3ccccc3n2C)C(=O)C(C)(C)N1c1cc(OC)cc(OC)c1 [compound 81] | 100 to 1000
COc1cc(OC)cc(N2C(N)=C(c3nc4ccccc4[nH]3)C(=O)[C@@H]2C)c1 [compound 83] | 1000 to 10000
CC[C@]1(C)C(=O)C(c2nc3ccccc3[nH]2)=C(N)N1c1cc(OC)cc(OC)c1 [compound 84] | 100 to 1000
CC[C@@]1(C)C(=O)C(c2nc3ccccc3[nH]2)=C(N)N1c1cc(OC)cc(OC)c1 [compound 85] | 100 to 1000
COc1cc(OC)cc(-n2c(N)c(-c3nc4ccccc4[nH]3)c(=O)n2C)c1 [compound 86] | 100 to 1000

Compound | EC50 [nM]
COCCNC1=C(c2nc3ccccc3[nH]2)C(=O)C(C)(C)N1c1cc(OC)cc(OC)c1 [compound 91] | 1000 to 10000
CC[C@@H]1C(=O)C(c2nc3ccccc3[nH]2)=C(N)N1c1cc(OC)cc(OC)c1 [compound 97] | 1000 to 10000
Cc1ccc(N2C(N)=C(c3nc4ccccc4[nH]3)C(=O)C2(C)C)c(C)c1 [compound 101] | 100 to 1000
Cc1cc(C)cc(N2C(N)=C(c3nc4ccccc4[nH]3)C(=O)C2(C)C)c1 [compound 102] | 100 to 1000
CNC1=C(c2nc3ccccc3[nH]2)C(=O)C(C)(C)N1c1ccc(C)cc1C [compound 104] | 1000 to 10000
CNC1=C(c2nc3ccccc3[nH]2)C(=O)C(C)(C)N1c1cc(C)cc(C)c1 [compound 105] | 100 to 1000
COc1cc(OC)cc(N2C(N)=C(c3nc4ccccc4[nH]3)C(=O)[C@@H]2c2ccccc2)c1 [compound 106] | 1000 to 10000
COc1cc(OC)cc(N2C(N)=C(c3nc4ccccc4[nH]3)C(=O)C23CCC3)c1 [compound 108] | < 100
COc1cc(OC)cc(-n2c(N)c(-c3nc4ccccc4[nH]3)c(=N)n2C)c1 [compound 110] | 100 to 1000
COc1cc(OC)cc(N2C(N)=C(c3nc4ccccc4[nH]3)C(=O)C2(C)O)c1 (stereo not shown) [compound 112] | 100 to 1000
CCC1(O)C(=O)C(c2nc3ccccc3[nH]2)=C(N)N1c1cc(OC)cc(OC)c1 (stereo not shown) [compound 113] | 100 to 1000
CNC1=C(c2nc3ccccc3[nH]2)C(=O)C(C)(O)N1c1cc(OC)cc(OC)c1 (stereo not shown) [compound 114] | 100 to 1000
CCC1(O)C(=O)C(c2nc3ccccc3[nH]2)=C(NC)N1c1cc(OC)cc(OC)c1 (stereo not shown) [compound 115] | 100 to 1000
COc1cc(OC)cc(N2C(N)=C(c3nc4ccccc4[nH]3)C(=O)C2(C)OC)c1 (stereo not shown) [compound 119] | 1000 to 10000
CNC1=C(c2nc3ccccc3[nH]2)C(=O)C(C)(OC)N1c1cc(OC)cc(OC)c1 (stereo not shown) [compound 120] | 100 to 1000
C=CCNC1=C(c2nc3ccccc3[nH]2)C(=O)C(C)(C)N1c1cc(OC)cc(OC)c1 [compound 122] | 100 to 1000
COc1cc(OC)cc(N2C(NCC3CC3)=C(c3nc4ccccc4[nH]3)C(=O)C2(C)C)c1 [compound 125] | 1000 to 10000
COc1cc(OC)cc(N2C(Nc3ccccc3)=C(c3nc4ccccc4[nH]3)C(=O)C2(C)C)c1 [compound 126] | 1000 to 10000
CNC1=C(c2nc3ccccc3[nH]2)C(=O)C(C)(C)N1c1cc(O)cc(OC)c1 [compound 129] | 100 to 1000
COc1cc(OC)cc(N2C(N)=C(c3nc4ccccc4[nH]3)C(=O)C23CC3)c1 [compound 131] | 1000 to 10000
COc1cc(OC)cc(N2C(N)=C(c3nc4ccccc4[nH]3)C(=O)C2(C)CO)c1 (stereo not shown) [compound 133] | 100 to 1000
COC(=O)C1C(=O)C(c2nc3ccccc3[nH]2)=C(N)N1c1cc(OC)cc(OC)c1 (stereo not shown) [compound 134] | 1000 to 10000
[2H]C([2H])([2H])Oc1cc(OC([2H])([2H])[2H])cc(N2C(N)=C(c3nc4ccccc4[nH]3)C(=O)C2(C)C)c1 [compound 135] | 100 to 1000
CNc1c(-c2nc3ccccc3[nH]2)c(=O)n(C)n1-c1cc(OC)cc(OC)c1 [compound 140] | < 100
COc1cc(OC)cc(-n2c(NO)c(-c3nc4ccccc4[nH]3)c(=O)n2C)c1 [compound 143] | 1000 to 10000

Compound | EC50 [nM]
COc1cc(OC)cc(N2C(N3CCCC3)=C(c3nc4ccccc4[nH]3)C(=O)C2(C)C)c1 [compound 144] | 1000 to 10000
CCc1cc(OC)cc(N2C(N)=C(c3nc4ccccc4[nH]3)C(=O)C2(C)C)c1 [compound 155] | 100 to 1000
CCc1cc(CC)cc(N2C(N)=C(c3nc4ccccc4[nH]3)C(=O)C2(C)C)c1 [compound 156] | 100 to 1000
CCOc1cc(OC)cc(N2C(N)=C(c3nc4ccccc4[nH]3)C(=O)C2(C)C)c1 [compound 157] | 100 to 1000
CCOc1cc(OCC)cc(N2C(N)=C(c3nc4ccccc4[nH]3)C(=O)C2(C)C)c1 [compound 158] | 1000 to 10000
CC1(C)C(=O)C(c2nc3ccccc3[nH]2)=C(N)N1c1cc(Cl)cc(Cl)c1 [compound 159] | 1000 to 10000
COc1cccc(N2C(N)=C(c3nc4ccccc4[nH]3)C(=O)C2(C)C)c1 [compound 163] | 1000 to 10000
CN(C)c1cccc(N2C(N)=C(c3nc4ccccc4[nH]3)C(=O)C2(C)C)c1 [compound 164] | 1000 to 10000
COc1ccc(OC)c(N2C(N)=C(c3nc4ccccc4[nH]3)C(=O)C2(C)C)c1 [compound 165] | 1000 to 10000
COc1cc(OC)cc(N2CC(=O)C(c3nc4cscc4[nH]3)=C2N)c1 [compound 173] | 1000 to 10000
[2H]C([2H])([2H])Oc1cc(OC([2H])([2H])[2H])cc(N2C(NC)=C(c3nc4ccccc4[nH]3)C(=O)C2(C)C)c1 [compound 175] | < 100
C=C1C(=O)C(c2nc3ccccc3[nH]2)=C(N)N1c1cc(OC)cc(OC)c1 [compound 177] | 100 to 1000
COc1cc(OC)cc(N2C(N)=C(c3nc4ccccc4[nH]3)C(=O)C23CCNC3)c1 (stereo not shown) [compound 182] | 100 to 1000
COc1cc(OC)cc(N2C(N)=C(c3nc4ccccc4[nH]3)C(=O)C23CCN(C)C3)c1 (stereo not shown) [compound 183] | 1000 to 10000
CC[C@@H]1C(=O)C(c2nc3ccccc3[nH]2)=C(NC)N1c1cc(OC)cc(OC)c1 [compound 184] | 100 to 1000
CCNC1=C(c2nc3ccccc3[nH]2)C(=O)[C@@H](CC)N1c1cc(OC)cc(OC)c1 [compound 186] | 100 to 1000
COc1cc(OC)cc(N2C(N)=C(c3nc4ccccc4[nH]3)C(=O)C23CNC3)c1 [compound 189] | 1000 to 10000
COc1cc(OC)cc(N2C(N)=C(c3nc4ccccc4[nH]3)C(=O)C23CN(C)C3)c1 [compound 190] | 1000 to 10000
COc1cc(OC)cc(N2C(N)=C(c3nc4ccccc4[nH]3)C(=O)C23COC3)c1 [compound 191] | 100 to 1000
CNC1=C(c2nc3ccccc3[nH]2)C(=O)C2(CNC2)N1c1cc(OC)cc(OC)c1 [compound 192] | 100 to 1000
CNC1=C(c2nc3ccccc3[nH]2)C(=O)C2(CN(C)C2)N1c1cc(OC)cc(OC)c1 [compound 193] | 100 to 1000
CNC1=C(c2nc3ccccc3[nH]2)C(=O)C2(COC2)N1c1cc(OC)cc(OC)c1 [compound 194] | < 100
COc1cc(OC)cc(-n2nc(Nc3ccccc3)c(-c3nc4ccccc4[nH]3)c2O)c1 [compound 197] | 1000 to 10000
